Measurements published in patent US8952024B2, “Herbicidal pyrimidone derivatives” (E I du Pont de Nemours and Company, priority 2009, dated 2015).

Tests used:
Format in all cases: in vivo
[1] = system: barnyardgrass (Echinochloa crus-galli); experiment: Test A pre-/postemergence plant response
From the text: (§1) Seeds of barnyardgrass (Echinochloa crus-galli), large crabgrass (Digitaria sanguinalis), giant foxtail (Setaria faberii), morningglory (Ipomoea spp.), pigweed (Amaranthus retroflexus), velvetleaf (Abutilon theophrasti), wheat (Triticum aestivum) and corn (Zea mays) were planted into a blend of loam soil and sand and treated preemergence with a directed soil spray using test chemicals formulated in a non-phytotoxic solvent mixture which included a surfactant. At the same time these species were also treated with postemergence applications of test compounds formulated in the same manner.
(§2) Plants ranged in height from two to ten cm and were in the one- to two-leaf stage for the postemergence treatment. Treated plants and untreated controls were maintained in a greenhouse for approximately ten days, after which time all treated plants were compared to untreated controls and visually evaluated for injury. Plant response ratings, summarized in Table A, are based on a 0 to 100 scale where 0 is no effect and 100 is complete control. A dash (-) response means no test result.

corn (Zea mays) = experiment: Test A pre-/postemergence plant response
From the text: as §1, §2

[2] = system: giant foxtail (Setaria faberii); experiment: Test A pre-/postemergence plant response
From the text: as §1, §2

[3] = system: large crabgrass (Digitaria sanguinalis); experiment: Test A pre-/postemergence plant response
From the text: as §1, §2

[4] = system: morningglory (Ipomoea spp.); experiment: Test A pre-/postemergence plant response
From the text: as §1, §2

[5] = system: pigweed (Amaranthus retroflexus); experiment: Test A pre-/postemergence plant response
From the text: as §1, §2

[6] = system: velvetleaf (Abutilon theophrasti); experiment: Test A pre-/postemergence plant response
From the text: as §1, §2

[7] = system: wheat (Triticum aestivum); experiment: Test A pre-/postemergence plant response
From the text: as §1, §2

[8] = system: barnyardgrass (Echinochloa crus-galli); experiment: Test B flooded paddy test; conditions: for Plant response rating, Flood, Barnyardgrass: 250 g ai/ha, flooded paddy test, visual rating on 0 to 100 scale (0 no effect, 100 complete control) after 13 to 15 days; for Plant response rating, Barnyardgrass: Flood (flooded paddy test), 13 to 15 days; for Barnyardgrass plant response rating: Flood, scale 0 to 100 (0 no effect, 100 complete control)
From the text: (§3) Plant species in the flooded paddy test consisted of rice (Oryza sativa), umbrella sedge (Cyperus difformis), ducksalad (Heteranthera limosa) and barnyardgrass (Echinochloa crus-galli) grown to the 2-leaf stage for testing. At the time of treatment, test pots were flooded with water to 3 cm above the soil surface, treated by application of test compounds directly to the paddy water, and then maintained at that water depth for the duration of the test.
(§4) Treated plants and controls were maintained in a greenhouse for 13 to 15 days, after which time all treated plants were visually evaluated and compared to controls. Plant response ratings, summarized in Table B, are based on a scale of 0 to 100 where 0 is no effect and 100 is complete control. A dash (-) response means no test result.

[9] = system: ducksalad (Heteranthera limosa); experiment: Test B flooded paddy test; conditions: for Plant response rating, Flood, Ducksalad: 250 g ai/ha, flooded paddy test, visual rating on 0 to 100 scale (0 no effect, 100 complete control) after 13 to 15 days; for Plant response rating, Ducksalad: Flood (flooded paddy test), 13 to 15 days; for Ducksalad plant response rating: Flood, scale 0 to 100 (0 no effect, 100 complete control)
From the text: as §3, §4

rice (Oryza sativa) = experiment: Test B flooded paddy test; conditions: for Plant response rating, Flood, Rice: 250 g ai/ha, flooded paddy test, visual rating on 0 to 100 scale (0 no effect, 100 complete control) after 13 to 15 days; for Plant response rating, Rice: Flood (flooded paddy test), 13 to 15 days; for Rice plant response rating: Flood, scale 0 to 100 (0 no effect, 100 complete control)
From the text: as §3, §4

[10] = system: umbrella sedge (Cyperus difformis); experiment: Test B flooded paddy test; conditions: for Plant response rating, Flood, Sedge, Umbrella: 250 g ai/ha, flooded paddy test, visual rating on 0 to 100 scale (0 no effect, 100 complete control) after 13 to 15 days; for Plant response rating, Sedge, Umbrella: Flood (flooded paddy test), 13 to 15 days; for Sedge, Umbrella plant response rating: Flood, scale 0 to 100 (0 no effect, 100 complete control)
From the text: as §3, §4

[11] = Postemergence, 125 g ai/ha, visual injury, 0 to 100 scale (0 no effect, 100 complete control), approx. ten days
[12] = Postemergence, 500 g ai/ha, 0 to 100 scale, 0 = no effect, 100 = complete control, approx. ten days
[13] = Preemergence, 125 g ai/ha, 0 to 100 scale, 0 = no effect, 100 = complete control
[14] = Preemergence, 500 g ai/ha, visual injury, 0 to 100 scale (0 no effect, 100 complete control), approx. ten days
[15] = 31 g ai/ha, scale of 0 to 100 where 0 is no effect and 100 is complete control
[16] = 62 g ai/ha, scale of 0 to 100 where 0 is no effect and 100 is complete control
[17] = 125 g ai/ha, scale 0 to 100, 0 is no effect, 100 is complete control
[18] = Postemergence, 125 g ai/ha, 0 to 100 scale where 0 is no effect and 100 is complete control

O=C1CCCC(O)=C1C(=O)c1cnc(-c2ccccc2)n(-c2ccc(F)cc2F)c1=O [Compound 57]
90: Plant response rating, Barnyardgrass [1, 12] | Plant response rating, Barnyardgrass [1, 14] | Plant response rating, Foxtail, Giant [2, 12] | Plant response rating, Foxtail, Giant [2, 14] | Plant response rating, Crabgrass, Large [3, 12] | Plant response rating, Crabgrass, Large [3, 13] | Pigweed plant response rating [5, 11] | Plant response rating, Pigweed [5, 13]
70: Barnyardgrass plant response rating [1, 11] | Plant response rating, Foxtail, Giant [2, 13]
20: Plant response rating, Morningglory [4, 13] | Plant response rating, Barnyardgrass [8, 17]
25: Plant response rating, Flood, Barnyardgrass [8] | Plant response rating, Flood, Rice (rice (Oryza sativa))
75: Plant response rating, Flood, Sedge, Umbrella [10]
40: Plant response rating, Barnyardgrass [1, 13] | Plant response rating, Corn (corn (Zea mays); [12]) | Plant response rating, Ducksalad [9, 17]
10: Plant response rating, Wheat [7, 12]
80: Foxtail, Giant plant response rating [2, 11] | Crabgrass, Large plant response rating [3, 11] | Plant response rating, Morningglory [4, 14] | Plant response rating, Velvetleaf [6, 13]
60: Plant response rating, Morningglory [4, 12] | Plant response rating, Flood, Ducksalad [9]
15: Plant response rating, Rice (rice (Oryza sativa); [17])
0: Corn plant response rating (corn (Zea mays); [11]) | Plant response rating, Corn (corn (Zea mays); [13]) | Plant response rating, Corn (corn (Zea mays); [14]) | Wheat plant response rating [7, 11] | Plant response rating, Wheat [7, 13] | Plant response rating, Wheat [7, 14] | Plant response rating, Barnyardgrass [8, 15] | Plant response rating, Barnyardgrass [8, 16] | Plant response rating, Ducksalad [9, 15] | Plant response rating, Ducksalad [9, 16] | Plant response rating, Rice (rice (Oryza sativa); [15]) | Plant response rating, Rice (rice (Oryza sativa); [16]) | Plant response rating, Sedge, Umbrella [10, 15] | Plant response rating, Sedge, Umbrella [10, 16]
50: Morningglory plant response rating [4, 11] | Plant response rating, Sedge, Umbrella [10, 17]
100: Plant response rating, Crabgrass, Large [3, 14] | Plant response rating, Pigweed [5, 12] | Plant response rating, Pigweed [5, 14] | Velvetleaf plant response rating [6, 11] | Plant response rating, Velvetleaf [6, 12] | Plant response rating, Velvetleaf [6, 14]

O=C1CCCC(O)=C1C(=O)c1cnc(-c2ccc(Cl)s2)n(-c2ccccc2)c1=O [Compound 65]
100: Plant response rating, Velvetleaf [6, 12]
10: Barnyardgrass plant response rating [1, 11] | Plant response rating, Barnyardgrass [1, 14] | Foxtail, Giant plant response rating [2, 11] | Plant response rating, Crabgrass, Large [3, 13]
20: Pigweed plant response rating [5, 11]
50: Plant response rating, Barnyardgrass [1, 12] | Morningglory plant response rating [4, 11] | Plant response rating, Velvetleaf [6, 14]
40: Plant response rating, Foxtail, Giant [2, 12] | Plant response rating, Foxtail, Giant [2, 14]
60: Plant response rating, Crabgrass, Large [3, 12] | Plant response rating, Morningglory [4, 12] | Plant response rating, Pigweed [5, 12]
0: Plant response rating, Barnyardgrass [1, 13] | Corn plant response rating (corn (Zea mays); [11]) | Plant response rating, Corn (corn (Zea mays); [12]) | Plant response rating, Corn (corn (Zea mays); [13]) | Plant response rating, Corn (corn (Zea mays); [14]) | Plant response rating, Foxtail, Giant [2, 13] | Plant response rating, Morningglory [4, 13] | Plant response rating, Morningglory [4, 14] | Plant response rating, Pigweed [5, 13] | Plant response rating, Pigweed [5, 14] | Wheat plant response rating [7, 11] | Plant response rating, Wheat [7, 12] | Plant response rating, Wheat [7, 13] | Plant response rating, Wheat [7, 14] | Plant response rating, Flood, Barnyardgrass [8] | Plant response rating, Barnyardgrass [8, 16] | Plant response rating, Barnyardgrass [8, 17] | Barnyardgrass plant response rating ([8]; 31 g ai/ha) | Plant response rating, Flood, Ducksalad [9] | Plant response rating, Ducksalad [9, 16] | Plant response rating, Ducksalad [9, 17] | Ducksalad plant response rating ([9]; 31 g ai/ha) | Plant response rating, Flood, Rice (rice (Oryza sativa)) | Plant response rating, Rice (rice (Oryza sativa); [16]) | Plant response rating, Rice (rice (Oryza sativa); [17]) | Rice plant response rating (rice (Oryza sativa); 31 g ai/ha) | Plant response rating, Flood, Sedge, Umbrella [10] | Plant response rating, Sedge, Umbrella [10, 16] | Plant response rating, Sedge, Umbrella [10, 17] | Sedge, Umbrella plant response rating ([10]; 31 g ai/ha)
80: Plant response rating, Crabgrass, Large [3, 14]
90: Velvetleaf plant response rating [6, 11]
30: Crabgrass, Large plant response rating [3, 11] | Plant response rating, Velvetleaf [6, 13]

O=C1CCCC(O)=C1C(=O)c1cnc(-c2ccco2)n(-c2ccccc2)c1=O [Compound 76]
10: Plant response rating, Wheat [7, 12]
70: Plant response rating, Foxtail, Giant [2, 12] | Plant response rating, Crabgrass, Large [3, 18] | Plant response rating, Velvetleaf [6, 14]
0: Plant response rating, Barnyardgrass [1, 13] | Plant response rating, Corn (corn (Zea mays); [18]) | Plant response rating, Corn (corn (Zea mays); [13]) | Plant response rating, Corn (corn (Zea mays); [14]) | Plant response rating, Foxtail, Giant [2, 13] | Plant response rating, Morningglory [4, 13] | Plant response rating, Wheat [7, 18] | Plant response rating, Wheat [7, 13] | Plant response rating, Flood, Barnyardgrass [8] | Plant response rating, Barnyardgrass [8, 16] | Plant response rating, Barnyardgrass [8, 17] | Barnyardgrass plant response rating ([8]; 31 g ai/ha) | Plant response rating, Flood, Ducksalad [9] | Plant response rating, Ducksalad [9, 16] | Plant response rating, Ducksalad [9, 17] | Ducksalad plant response rating ([9]; 31 g ai/ha) | Plant response rating, Flood, Rice (rice (Oryza sativa)) | Plant response rating, Rice (rice (Oryza sativa); [16]) | Plant response rating, Rice (rice (Oryza sativa); [17]) | Rice plant response rating (rice (Oryza sativa); 31 g ai/ha) | Plant response rating, Flood, Sedge, Umbrella [10] | Plant response rating, Sedge, Umbrella [10, 16] | Plant response rating, Sedge, Umbrella [10, 17] | Sedge, Umbrella plant response rating ([10]; 31 g ai/ha)
30: Plant response rating, Barnyardgrass [1, 14] | Plant response rating, Foxtail, Giant [2, 14]
20: Plant response rating, Corn (corn (Zea mays); [12]) | Plant response rating, Velvetleaf [6, 13] | Plant response rating, Wheat [7, 14]
80: Plant response rating, Barnyardgrass [1, 12]
100: Plant response rating, Crabgrass, Large [3, 14] | Plant response rating, Pigweed [5, 12] | Plant response rating, Pigweed [5, 14] | Plant response rating, Velvetleaf [6, 18] | Plant response rating, Velvetleaf [6, 12]
40: Plant response rating, Foxtail, Giant [2, 18]
90: Plant response rating, Crabgrass, Large [3, 12] | Plant response rating, Morningglory [4, 18] | Plant response rating, Morningglory [4, 12] | Plant response rating, Pigweed [5, 18]
50: Plant response rating, Barnyardgrass [1, 18] | Plant response rating, Crabgrass, Large [3, 13] | Plant response rating, Morningglory [4, 14] | Plant response rating, Pigweed [5, 13]

CCCCCc1ncc(C(=O)C2=C(O)CCCC2=O)c(=O)n1-c1ccccc1 [Compound 78]
50: Plant response rating, Barnyardgrass [1, 18] | Plant response rating, Foxtail, Giant [2, 12] | Plant response rating, Crabgrass, Large [3, 14] | Plant response rating, Pigweed [5, 13] | Plant response rating, Velvetleaf [6, 14]
40: Plant response rating, Flood, Sedge, Umbrella [10]
30: Plant response rating, Barnyardgrass [1, 14] | Plant response rating, Crabgrass, Large [3, 18] | Plant response rating, Sedge, Umbrella [10, 16]
0: Plant response rating, Barnyardgrass [1, 13] | Plant response rating, Corn (corn (Zea mays); [18]) | Plant response rating, Corn (corn (Zea mays); [13]) | Plant response rating, Corn (corn (Zea mays); [14]) | Plant response rating, Foxtail, Giant [2, 13] | Plant response rating, Morningglory [4, 13] | Plant response rating, Morningglory [4, 14] | Plant response rating, Wheat [7, 18] | Plant response rating, Wheat [7, 12] | Plant response rating, Wheat [7, 13] | Plant response rating, Wheat [7, 14] | Plant response rating, Flood, Barnyardgrass [8] | Plant response rating, Barnyardgrass [8, 16] | Plant response rating, Ducksalad [9, 16] | Plant response rating, Rice (rice (Oryza sativa); [16])
20: Plant response rating, Corn (corn (Zea mays); [12]) | Plant response rating, Foxtail, Giant [2, 18] | Plant response rating, Velvetleaf [6, 13] | Plant response rating, Flood, Ducksalad [9] | Plant response rating, Flood, Rice (rice (Oryza sativa))
100: Plant response rating, Morningglory [4, 12] | Plant response rating, Pigweed [5, 18] | Plant response rating, Pigweed [5, 12] | Plant response rating, Pigweed [5, 14] | Plant response rating, Velvetleaf [6, 18] | Plant response rating, Velvetleaf [6, 12]
10: Plant response rating, Foxtail, Giant [2, 14] | Plant response rating, Crabgrass, Large [3, 13]
70: Plant response rating, Barnyardgrass [1, 12] | Plant response rating, Crabgrass, Large [3, 12] | Plant response rating, Morningglory [4, 18]
